Test: moisture sorption (Dynamic Vapor Sorption), water content versus relative humidity
Type: physicochemical
Experimental: The moisture sorption isotherms were recorded with a SPS-11 moisture sorption analyzer (MD Messtechnik, Ulm, D). […] The equilibrium condition for each step was set to a mass constancy of ±0.005% over 60 min. The temperature was 25±0.1° C.

water content (relative humidity of about 40%): about 0.5 moles of water
water content (relative humidity of about 70%-80%): about 0.9 moles of water
SMILES: CCC[C@H](NC(=O)[C@@H]1[C@H]2CCC[C@H]2CN1C(=O)[C@@H](NC(=O)[C@@H](NC(=O)c1cnccn1)C1CCCCC1)C(C)(C)C)C(=O)C(=O)NC1CC1 [Form C, (1S,3aR,6aS)-2-[(2S)-2-[[(2S)-2-Cyclohexyl-2-(pyrazine-2-carbonylamino)acetyl]amino]-3,3-dimethylbutanoyl]-N-[(3S)-1-(cyclopropylamino)-1,2-dioxohexan-3-yl]-3,3a,4,5,6,6a-hexahydro-1H-cyclopenta[c]pyrrole-1-carboxamide]

From patent US20160039871A1, “NOVEL FORMS OF TELAPREVIR” (SANDOZ AG, priority 2012, published 2016)
